In paper PMC8955829, “Drug Discovery of New Anti-Inflammatory Compounds by Targeting Cyclooxygenases” (Pharmaceuticals, 2022):
Where “and” joins values, the source holds several entries; their conditions need not be identical. Equal entries are not always repeated.

Assays:
[1] = system: carrageenan-induced rat paw edema; assay: Carrageenan-induced paw edema in rats; assay type: in vivo; conditions: 10 mg/kg orally; for rat paw edema size: evaluated for 5 h, Figure 3; for rat paw edema: after 1 h of dosing
Text: The carrageenan-induced paw edema model was used to evaluate the compounds’ anti-inflammatory activity. Only carrageenan was given to the control animals. The treatment effect was tracked by observing the improvement of rat paw edema in response to drug administration. Carrageenan injections caused rat paws to grow from 0.3 cm to 0.8 cm in size.
Following in vitro testing, three compounds with the highest selectivity against COX-2 were chosen for in vivo investigations utilizing the rat paw edema assay. After subcutaneous carrageenan injection into the rodent’s paw, plasma extravasation, tissue proliferation, plasma protein release, and neutrophilic extravasation, all of which are caused by arachidonic acid digestion, produced inflammation. Following the carrageenan infusion, the main phase lasted 2 h. The following process is remodeling, which takes 5 h and begins at the 3rd h. The main stage is distinguished by the appearance of histamine and serotonin. The development of prostaglandins, proteases, and lysosomes causes the second stage of edema. Adult male albino rats weighing 120–150 g were divided into seven groups, each with seven rats, and kept at 25 °C with a 12-h light/dark cycle. Subplantar injection of 0.2 mL of 1% carrageenan solution in 0.9 percent saline into the right hind paw of rats was used to induce swelling and inflammation. To determine the inflammation generated by carrageenan, the Vernier Caliper was used to measure the thickness of rat paws before and after injection. […] Paw edema was measured at 0, 0.5, 1, 2, 3, 4, and 5 h after the drug was administered. The edema inhibition was calculated by calculating the difference in thicknesses between the treated and control groups.

Raw264.7 cells = assay: In vitro cytotoxicity, WST-1 assay; assay type: cell-based, mouse; conditions: 1 µM, 24 h, presence or absence of LPS (1 ug/mL)
Procedure: Raw264.7 cells were used to test the effects of compounds 1, 2, and 3 on cell viability and proliferation. Raw264.7 cells were treated for 24 h in a 96-well plate with compounds (1 µM) in the presence or absence of LPS (1 ug/mL). WST1 reagent was added to each well after treatment and incubated for an additional 2 h. Following that, the OD450/620 ratio was determined. […] However, all compounds had no effect on WST1 values or cell morphology in Raw264.7 cells. Raw264.7 cells in a 96-well plate were treated with our compounds (1 uM) in the presence or absence of LPS (1 ug/mL) for 24 h. After treatment, the WST1 reagent was added into each well and incubated for an additional 2 h. After that, OD450/620 was measured.
Dulbecco’s modified Eagle’s minimum essential medium containing 5% heat-inactivated fetal bovine serum was used to maintain Raw264.7 cells (ATCC). Raw264.7 cells ([…]) in a 96-well plate were treated for 24 h with the indicated compounds at 1 µM or vehicle (DMSO) in the presence or absence of LPS (1 µg/mL) to detect cell viability based on mitochondrial activity. WST-1 solution (Dojindo) was then added to each well and incubated at 37 °C for an additional 2 h. According to a previous study, cell viability was determined using the difference in absorbance at 450 and 620 nm as an indicator [37].

rat paw = assay: Histopathological examination of rat paw (H&E, Masson's trichrome); assay type: in vivo; conditions: carrageenan-treated rats
Procedure: The rats’ paws were collected and washed in a saline solution after the end of rat paw experiment. Specimens were fixed in 10% natural formalin for 2 days before being washed overnight with running water. The cleaned samples were dehydrated in ethyl alcohol at increasing percentages, starting with 70% and ending with absolute alcohol. The samples were cleaned by immersing them in xylol for 2 h. For 3 h at 37 °C, the cleared samples were placed in a sealed jar containing 50% paraffin in xylol. The samples were then soaked in melting paraffin for 2 h at 48 °C before being blocked in hard paraffin and sliced into 5-micron slices. The sections were stained with hematoxylin and eosin (H&E) and Masson’s trichrome. Sections were mounted with Canada balsam and covered with a coverslip in preparation for histological examination.

rat stomach = assay: Histopathological examination of rat stomach / ulcerogenic effect; assay type: in vivo; conditions: single dose 20 mg/kg orally
Procedure: Compounds 1–3 were examined for ulcerogenic effects in the rat stomach after showing anti-inflammatory advantages in a rat paw test. Rats were deprived for 24 h at 25 °C with a 12 h light/dark cycle. Indomethacin was used as a control. All compounds were given in a single dose of 20 mg/kg orally. After 24 h, the rats were slaughtered, and their stomachs were removed and washed with normal saline. Binocular magnification was used to inspect each group’s stomachs for the existence of a gastric lesion on the mucosa. Following that, the stomachs were kept in 10% w/v formalin for histological investigation, as previously described.

COX-2 = target: T1, COX-2 (Homo sapiens, UniProt P35354); assay: COX-2 inhibitor screening assay kit (Cayman); assay type: biochemical; conditions: for IC50: three separate experiments
T1 construct: purchased Cayman Chemical (Ann Arbor, MI, USA)
T1 sequence (P35354 18-604): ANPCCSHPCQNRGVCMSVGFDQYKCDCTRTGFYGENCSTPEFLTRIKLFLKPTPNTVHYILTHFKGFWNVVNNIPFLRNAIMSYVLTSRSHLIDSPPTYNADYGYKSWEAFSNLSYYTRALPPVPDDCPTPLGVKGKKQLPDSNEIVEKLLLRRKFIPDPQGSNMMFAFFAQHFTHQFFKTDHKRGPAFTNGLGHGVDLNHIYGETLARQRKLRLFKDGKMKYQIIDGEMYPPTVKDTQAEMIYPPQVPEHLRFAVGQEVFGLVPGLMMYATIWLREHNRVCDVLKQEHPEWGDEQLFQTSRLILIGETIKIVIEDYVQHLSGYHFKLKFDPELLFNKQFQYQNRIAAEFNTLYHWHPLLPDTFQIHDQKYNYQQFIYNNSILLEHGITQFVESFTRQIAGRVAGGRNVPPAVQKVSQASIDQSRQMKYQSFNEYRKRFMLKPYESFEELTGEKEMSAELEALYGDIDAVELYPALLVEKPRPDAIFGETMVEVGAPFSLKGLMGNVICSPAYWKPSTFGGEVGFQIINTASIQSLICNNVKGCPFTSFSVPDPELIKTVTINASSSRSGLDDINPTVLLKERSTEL
Procedure: The test chemicals’ capacity to inhibit the conversion of arachidonic acid to prostaglandin was determined. In test tubes, 25 mM Tris–HCl, pH 8.0, containing 5 mM EDTA, phenol, and 1 mM hematin, was added. The test compounds were dissolved in dimethyl sulfoxide and added in concentrations ranging from 0.005–200 µM. Dimethyl sulfoxide alone was applied to control test containers. COX-1 or COX-2 enzymes were added to test tubes and preincubated for 10 min at 37 °C. The arachidonic acid substrate was added, and the tubes were incubated at 37 °C for 2 min. The compound immunochemical assay was used to calculate the amount of prostaglandin produced. Three separate experiments were used to calculate the IC50 values. The selectivity index was calculated as follows:(1) Selectivity index=IC50COX−1/IC50COX−2

Compound	rat paw edema size [1]	effect on WST1 values (cell viability) and cell morphology (Raw264.7 cells)	rat paw histopathology, H&E: edema and inflammatory cell infiltration (rat paw)	rat paw collagen deposition, Masson's Trichrome stain (rat paw; 10× magnification)	rat paw histopathology, H&E (rat paw; 10× magnification)	rat paw histopathology, H&E (rat paw; 40× magnification)	rat stomach collagen deposition, Masson's Trichrome (rat stomach; 10× magnification)	rat stomach histopathology, H&E (rat stomach; 10× magnification)	rat stomach collagen deposition, Masson's Trichrome (rat stomach; 40× magnification)	rat stomach histopathology, H&E (rat stomach; 40× magnification)	rat paw edema [1]	rat stomach collagen deposition, Masson's Trichrome (rat stomach)	SI (selectivity index = IC50 COX-1/IC50 COX-2) (COX-2)	IC50 (COX-2) [nM]	rat paw collagen deposition, Masson's stain (rat paw)
Cc1cccc2[nH]c(C3CCCN(C(=O)c4ccccc4NCC(=O)O)C3)nc12 (stereo not drawn) [Compound 1, [(2-{[3-(4-methyl-1H-benzimidazol-2-yl)piperidin-1-yl]carbonyl}phenyl)amino]acetic acid]	significantly reduced rat paw size	non-cytotoxic	marked improvement in the degree of edema and the inflammatory cell infiltration	slight collagen deposition	significant decrease in the dermal thickness, inflammatory reaction in the deep dermis (black star), and moderate improvements in edema	slight inflammatory reaction (black star) and edema	normal collagen deposition	normal gastric layers	normal collagen deposition	absence of any signs of an inflammatory reaction					
COc1ccc2c(c1)c(CC(=O)O)c(C)n2C(=O)c1ccc(Cl)cc1 [Indomethacin, reference compound]				slight collagen deposition	significant decrease in the degree of inflammatory reaction (black star) and a moderate decrease in edema	slight inflammatory reaction (black star) and edema	significant collagen deposition	slight degeneration of gastric layers	collagen deposition	absence of any signs of an inflammatory reaction	dramatically reduced rat paw edema	mild increase in collagen deposition			
O=C(O)COc1ccc(Cl)cc1C1CC(=O)Nc2cc3[nH]ncc3cc21 (stereo not drawn) [Compound 7]													95.068	97 ± 15	
O=C(O)CC1COCCN1Cc1cccc(-c2ccccn2)c1 (stereo not drawn) [Compound 6]													190.88	60 ± 75	
COc1cccc(-c2nn(-c3ccccc3)cc2CN(C)CCc2cn[nH]c2)c1 [Compound 5]													132.64	80 ± 9	
COc1ccc(CN(Cc2ccc(F)cc2)CC2CCCO2)cc1CO (stereo not drawn) [Compound 4]													36.3	210 ± 10	
CCOC(=O)c1cn(-c2cc(C#N)ccc2O)cc(Oc2ccccc2)c1=O [Compound 2, ethyl 1-(5-cyano-2-hydroxyphenyl)-4-oxo-5-phenoxy-1,4-dihydropyridine-3-carboxylate]	significantly reduced rat paw size	non-cytotoxic	marked anti-inflammatory effect and a pronounced decline in edema and inflammatory cell invasion	slight collagen deposition	substantial decrease in both the inflammatory reaction (black star) and edema	slight inflammatory reaction (black star) and edema	slight collagen deposition	normal gastric layers	slight collagen deposition	absence of any signs of an inflammatory reaction					lowest
O=C(O)[C@H]1C[C@@H](C(=O)NC2CC2)CN(C(=O)c2ccc3[nH]nnc3c2)C1 [Compound 3]	significantly reduced rat paw size		weaker action than compounds 1 and 2 manifested by a moderate increase in cell infiltration and edema	significant collagen deposition	significant decrease in the degree of inflammatory reaction (black star) and a moderate decrease in edema	moderate inflammatory reaction (black star) and edema	significant collagen deposition	slight degeneration of gastric layers	significant collagen deposition	absence of any signs of an inflammatory reaction		mild increase in collagen deposition	194.9 and 194.91	60 ± 3	
O=C(O)Cc1ccccc1Nc1c(Cl)cccc1Cl [Diclofenac, reference compound]											dramatically reduced rat paw edema				
